Laboratory results reported in US20110045102A1, “Cancer chemotherapy compositions comprising PI3K pathway modulators and triptolide” (priority 2005, published 2011).

Tests used:
Akt = assay: Western blot for Akt phosphorylation (Example III); assay type: cell-based, human; settings: 6 hr and 24 hr; LY294002 10 (FIG. 18 legend: mM), carboplatin 50
Procedure: The OCC1-SEAP-12 cells were grown to 80% confluence. […] […] Total cell lysates were subjected to SDS polyacrylamide gel electrophoresis 9 page) and transferred to PVDF membranes (Millipore, Bedford, Mass.). Membranes were immunoblotted with antibodies to both the phosphorylated and non-phosphorylated forms of […] (Cell Signaling Technology, Beverly, Mass.), or alternatively, with antibodies to cleaved and full length caspase-3 (Cell Signaling Technology, Beverly, Mass.).

caspase 3 = assay: Western blot for active caspase 3 (Example III); assay type: cell-based, human; settings: LY294002 10 μM, carboplatin 50 μg/ml
Procedure: The OCC1-SEAP-12 cells were grown to 80% confluence. Cultures were incubated in DMEM plus 0.1% bovine serum albumin (BSA) and 0.1% BCS to which either vehicle control, carboplatin (0-50 μg/ml), LY294002 (0-20 μM) or combinations of these treatments. Following 24, 48 or 72 hr cells were lysed with sample buffer (62.5 mM Tris-HCl, pH 6.8, 2% SDS, 5% glycerol, […], 0.5% β-mercaptoethanol). Total cell lysates were subjected to SDS polyacrylamide gel electrophoresis 9 page) and transferred to PVDF membranes (Millipore, Bedford, Mass.). Membranes were immunoblotted with antibodies to both the phosphorylated and non-phosphorylated forms of […] (Cell Signaling Technology, Beverly, Mass.), or alternatively, with antibodies to cleaved and full length caspase-3 (Cell Signaling Technology, Beverly, Mass.).

[1] = test system: OCC1-SEAP-12 ovarian cancer cells; settings: LY294002 alone (Westfall and Skinner 2005); cited from earlier work
[2] = test system: OCC1-SEAP-12 ovarian cancer cells; assay: Cell survival by DNA content of culture wells (Example III); assay type: cell-based, human
Procedure: Cell survival was assessed as cell number remaining in culture following exposure to treatments. The DNA content of individual culture wells was used as an indication of cell number. Cells plated in 24 well culture plates were allowed to approach confluence (80%) in Ham's F-12 medium plus 10% BCS. […] Media aliquots were taken when appropriate for SEAP analysis. The DNA was measured fluorometrically as previously described (Nilsson […], Ligon […]. An in vivo mouse reporter gene (human secreted alkaline phosphatase) model to monitor ovarian tumor growth and response to therapeutics. Cancer Chemother Pharmacol 2002; 49(2):93-100). Briefly, the fluorescence of aliquots of sonicated cell suspensions into which SYBR Green I fluorescent dye (Molecular Probes, Eugene Oreg.) had been incorporated, was measured.

[3] = test system: OCC1-SEAP-12 ovarian cancer cells; assay type: in vivo
Procedure: Athymic nude mice were obtained and inoculated intraperitoneally with OCC1-SEAP-12 cells as described above in Examples I and II. Animals received injections of either vehicle control (PBS containing 25% DMSO), or carboplatin (60 mg/kg) alone, or in combination with LY294002 (50 mg/kg) every other day for 6 days. Blood samples were collected into capillary tubes from saphenous vein lancings at regular intervals during and following treatments. Capillary tubes were centrifuged, and the plasma samples were frozen (−20° C.), until the time of SEAP assay. The Washington State University Animal Care and Use Committee approved all procedures.
Blood plasma and cell culture medium samples were assayed for SEAP activity using the Great EscAPe SEAP fluorescence detection kit (Clontech Laboratories, Palo Alto, Calif.) as described above in Examples I and II. Blood plasma samples were diluted 1:100 prior to the assay to bring values within the linear range of the standard curve. The intraassay and interassay coefficients of variation were 2.5% and 18.8%, respectively.

OCC1-SEAP-12 cells = assay: Growth assay, [3H] thymidine incorporation (Example III); assay type: cell-based, human; settings: LY294002, 18h treatment
Procedure: Cell proliferation was analyzed by determining the amount of [^3H] thymidine incorporation Into newly synthesized DNA. The OCC1-SEAP-12 cells were plated in 24 well plates in Ham's F-12 medium plus 10% BCS and allowed to reach 50 to 70% confluence. Following a 48 hr serum starvation, the culture medium was changed to Dulbecco's Modified Eagle Medium (DMEM) plus 0.1% BSA and 0.1% BCS containing either vehicle control or carboplatin (0-100 μg/ml) alone, or in combination with LY294002 (0-20 μM). Treatments were removed after 18h and cells were incubated for 4 hr in medium containing 5 μCi/ml of [^3H] thymidine. Medium was removed and cells were disrupted by sonication in phosphate buffered saline (PBS). An aliquot of the sonicated solution of PBS was loaded onto a DEAE filtration plate (Millipore, Bedford, Mass.), and individual filters with bound DNA were collected for scintillation counting. Data was normalized to total DNA per well and was determined by a SYBR green fluorescent assay (Nilsson E E, Westfall S D, McDonald C, Ligon T, Sadler-Riggleman I, Skinner M K. An in vivo mouse reporter gene (human secreted alkaline phosphatase) model to monitor ovarian tumor growth and response to therapeutics. Cancer Chemother Pharmacol 2002; 49(2):93-100).

solid tumor types = settings: TPL 0.15 mg/kg; cited from earlier work
[4] = TPL 0.15 mg/kg, nude mice; cited from earlier work
OCC1-SEAP cell cultures = assay: DNA fragmentation (laddering) on agarose gel (Example II); assay type: cell-based, human; settings: 48 hr; TPL 100 ng/ml, carboplatin 50 μg/ml
Procedure: Following 48 h to 72 h treatment incubations, cells were suspended into culture medium and pelleted in tubes. DNA was isolated from collected cells using a Puregene™ DNA isolation kit (Gentra Systems, Minneapolis, Minn.). The quantity and purity of nucleic acid preparations were estimated by measuring the absorbance of each sample (A260/A280). DNA preparations (10 μg/well) were loaded onto 1.2% agarose gels and visualized with ethidium bromide stain.

caspase-3 = assay: Western blot for active caspase-3 (Example II); assay type: cell-based, human; settings: 24 h; TPL 100 ng/ml, carboplatin 50
breast cancer xenografts = settings: TPL 0.5 mg/kg; cited from earlier work
[5] = test system: OCC1-SEAP ovarian cancer cells; assay: Cell survival by DNA content of culture wells (Example II); assay type: cell-based, human; settings: 48 hours; triptolide 100 ng/ml, carboplatin 50 (FIG. 8 legend: mg/ml)
Procedure: Cell survival was assessed as the number of cells remaining in culture, following exposure to treatments. The DNA content of individual culture wells was used as an indication of cell number. Cells plated in 24 well culture plates were allowed to approach confluence (80%) in Ham's F-12 medium plus 10% BCS. Cultures were then incubated in DMEM, plus 0.1% BSA and 0.1% BCS, in the presence of vehicle control, carboplatin (0-100 μg/ml), Triptolide (100 ng/ml) or a combination of these for 24 to 96 hrs. Media aliquots were taken when appropriate for SEAP analysis. The DNA was measured fluorometrically, as described above, in Example I. Briefly, the fluorescence of an aliquot of sonicated cell suspension, into which SYBR Green I fluorescent dye (Molecular Probes, Eugene, Oreg.), had been incorporated was measured.

OCC1-SEAP tumor = assay: Nude mouse tumor model, intraperitoneal OCC1-SEAP cells, plasma SEAP (Example II); assay type: in vivo
From the text: Athymic nude mice (NCR Nu/Nu) were either purchased from Taconic (Germantown, N.Y.) or bred in-house at Washington State University, Pullman, Wash. The OCC1-SEAP cells were collected in Hank's balanced salt solution and counted prior to injection. Treatments were initiated 7 to 10 days following an intraperitoneal inoculation of mice with 1×10^7 OCC1-SEAP cells, as described above, in Example I.
Stock solutions of carboplatin (paraplatin; Bristol-Myers Squibb, Princeton, N.J.) and TPL (Calbiochem, CA), were prepared in sterile filtered PBS and DMSO, respectively. Animals received intraperitoneal injections of either vehicle controlled (PBS containing 4% DMSO), or carboplatin (60 mg/kg), alone, or in combination with TPL (0-1.0 mg/kg), every other day for 5 days. Alternatively, TPL (0.15 mg/kg) was injected every day for 10 days. For these experiments, carboplatin was administered under the same schedule of every other day for 5 days. Some mice were also treated with 40 mg/kg of LY294002 every other day for 5 days, with an intraperitoneal injection in the presence of TPL and carboplatin. Blood samples were collected into capillary tubes from saphenous vein lancings at regular intervals during and following treatments. The capillary tubes were centrifuged and the plasma samples were frozen at −20° C., until the time of SEAP assay. The Washington State University Animal Care and Use Committee approved all procedures.
Blood plasma and cell culture medium samples were assayed for SEAP activity using the Great EscAPe SEAP fluorescence detection kit (Clontech Laboratories, Palo Alto, Calif.), as described above in Example I. Blood plasma samples were diluted 1:100, prior to the assay to bring values within the linear range of the standard curve. The intraassay and interassay coefficients of variation were 2.5% and 18.8%, respectively. In the case of the experiments in which mice were treated with a combination of TPL, LY294002 and carboplatin, there was some variation in the extent of tumor growth in the control mice. In order to better compare response to treatment across experiments, the SEAP assay data between experiments were normalized by dividing each data point by the overall mean of all SEAP measurements from that experiment and up, through day 18. The normalized data then reflect the relative tumor burden of each mouse, compared to others in the experimental group, and can be combined across experiments.

[6] = test system: OCC1-SEAP intraperitoneal tumors; assay: Nude mouse intraperitoneal OCC1-SEAP tumor model, plasma SEAP (Example I); assay type: in vivo, athymic nude mice
Procedure: Athymic nude mice (Nu/Nu; Charles River Laboratories, Wilmington, Mass.) weighing about 25 g were used for in vivo studies.
Three mice were injected intraperitoneally with 1×10^7 OCC1-SEAP-12 cells. The experimental treatments began after 1 week. […] Alternatively, four mice with well-developed tumors (2-4 weeks after injection) were treated with a high dose of carboplatin (60 mg/kg) three times over a period of 4 days. After death all visible intraperitoneal tumors were dissected out and weighed.
Blood samples were collected from saphenous vein lancings three times per week into heparinized capillary tubes. The capillary tubes were centrifuged and the plasma samples were frozen at −20° C. until the time of SEAP assay. Blood samples were taken for SEAP assay from the mice within 24 hours of death 2-3 weeks after intraperitoneal injection of OCC1-SEAP cells.
Blood plasma and cell culture medium samples were assayed for SEAP activity using the Great EscAPe SEAP fluorescence detection kit (Clontech Laboratories, Palo Alto, Calif.). SEAP is secreted at a constant rate by transfected tumor cells and distributed throughout the body or into the culture medium. SEAP is heat stable, so any endogenous alkaline phosphatase activity in blood plasma is destroyed by heat treatment of the samples (65° C. for 30 minutes) during the assay. The SEAP enzyme in each sample acts on the substrate 4-methylumbelliferyl phosphate during a 1 hour incubation at room temperature to produce a fluorescent product with excitation and emission peaks at 360 and 449 nm, respectively. A fluorimeter is then used to measure SEAP activity. The intra-assay and inter-assay coefficients of variation were 2.5% and 18.8%, respectively. Blood plasma samples were diluted 1:100 prior to the assay to bring values within the linear range of the standard curve.

O=c1cc(N2CCOCC2)oc2c(-c3ccccc3)cccc12 [LY294002, 2-(4-morpholinyl)-8-phenyl-4H-1-benzopyran-4-one]
Akt phosphorylation (Akt): blocked basal levels | time at which active 17 kDa caspase 3 appears (caspase 3): 72 h | effect on ovarian cancer tumor progression [1]: negligible effects | reduction of cell number ([2]; 5 μM LY294002, 48 hr incubation): 22% | reduction of cell number ([2]; 10 μM LY294002, 48 hr incubation): 44% | abdominal swelling (FIG. 24) ([3]; physical appearance of mice after treatment): displayed abdominal swelling | tumor size vs vehicle control (FIG. 23) ([3]; single agents: LY294002 50 mg/kg, carboplatin 60 mg/kg): no significant difference | block of basal DNA synthesis (OCC1-SEAP-12 cells): 50%

CC(C)[C@]12O[C@H]1[C@@H]1O[C@]13[C@]1(O[C@H]1C[C@H]1C4=C(CC[C@@]13C)C(=O)OC4)[C@@H]2O [TPL, Triptolide]
inhibition of growth and metastasis of solid tumors (solid tumor types): potent | dose as share of the maximum tolerated dose [4]: 60% | DNA laddering (OCC1-SEAP cell cultures): evident | induction of active caspase-3 (caspase-3): robust induction | toxicity of dose (breast cancer xenografts): lethal | decrease in cell survival (μg DNA/ml) compared to control cultures [5]: approximately 40% | toxicity (OCC1-SEAP tumor; TPL 0.5 mg/kg ip every other day over 5 days): no apparent toxicity | mice expired within 24 hours (OCC1-SEAP tumor; TPL 1.0 mg/kg intraperitoneal): 2 of 3 | SEAP values vs vehicle control (OCC1-SEAP tumor; TPL 0.125, 0.25 or 0.5 mg/kg ip every other day over 5 days): not significant differences | tumor burden vs vehicle control (FIG. 11) (OCC1-SEAP tumor; high dose, short duration: TPL 0.5 mg/kg, carboplatin 60 mg/kg every other day for 5 days): no significant difference | tumor burden as measured by SEAP levels vs vehicle control (FIG. 12) (OCC1-SEAP tumor; low dose, long duration: TPL 0.15 mg/kg every day for 10 days, carboplatin 60 mg/kg every other day for 5 days): no significant difference

N.N.[Cl][Pt][Cl] [cisplatin]
tumor growth by plasma SEAP compared to vehicle controls ([6]; 3 or 10 mg/kg cisplatin every 48-72 h over a 2-week period, intraperitoneal): decreased tumor growth | difference in tumor growth between 3 and 10 mg/kg ([6]; cisplatin 3 vs 10 mg/kg): No difference
